Our source for the EC50 values is BindingDB's records for doi:10.1021/jm061152t (Abbott Laboratories, 2007).

Assay [1] can be described thus: The binding affinities (Ki) of compounds were determined using fluorescence polarization assays (FPA) that measure their ability to competitively displace a Bad-derived peptide from Bcl-xL. Compound efficacy (EC50) in a cellular context was evaluated by testing their ability to reverse the protection from cytokine w. (In general: Fluorescence polarisation rises when a labelled molecule tumbles more slowly, as on binding a larger partner.)

Assay [2] in a line: The binding affinities (Ki) of compounds were determined using fluorescence polarization assays (FPA) that measure their ability to competitively displace a Bad-derived peptide from Bcl-xL. IC50 values were binding affinities measured in the presence of 10% human serum. Compound efficacy (EC50) in a cellular co. As to conditions: pH 7.4.

Where “and” joins values, the source holds several entries; their conditions need not be identical. Equal entries are not always repeated.

Consider `COC1(Cc2ccccc2)CCN(c2ccc(C(=O)NS(=O)(=O)c3ccc(N[C@H](CCN(C)C)CSc4ccccc4)c([N+](=O)[O-])c3)cc2)CC1` [4-(4-benzyl-4-methoxypiperidin-1-yl)-N-[(4-{[(2R)-4-(dimethylamino)-1-(phenylsulfanyl)butan-2-yl]amino}-3-nitrobenzene)sulfonyl]benzamide], for which the EC50 in assay [1] came to 930 nM; in assay [2], 680 nM. Consider `COC1(CC2CCCCC2)CCN(c2ccc(C(=O)NS(=O)(=O)c3ccc(N[C@H](CCN(C)C)CSc4ccccc4)c([N+](=O)[O-])c3)cc2)CC1` [4-[4-(cyclohexylmethyl)-4-methoxypiperidin-1-yl]-N-[(4-{[(2R)-4-(dimethylamino)-1-(phenylsulfanyl)butan-2-yl]amino}-3-nitrobenzene)sulfonyl]benzamide], for which the half-maximal effective concentration (EC50) in assay [1] stood at 200 nM; in assay [2] it was 320 nM. As for `COC1(Cc2ccccc2Br)CCN(c2ccc(C(=O)NS(=O)(=O)c3ccc(N[C@H](CCN(C)C)CSc4ccccc4)c([N+](=O)[O-])c3)cc2)CC1` [4-{4-[(2-bromophenyl)methyl]-4-methoxypiperidin-1-yl}-N-[(4-{[(2R)-4-(dimethylamino)-1-(phenylsulfanyl)butan-2-yl]amino}-3-nitrobenzene)sulfonyl]benzamide], the results for the EC50 in assay [1] and in assay [2] were 200 nM and 100 nM, respectively.

On to `COC1(Cc2ccccc2Cl)CCN(c2ccc(C(=O)NS(=O)(=O)c3ccc(N[C@H](CCN(C)C)CSc4ccccc4)c([N+](=O)[O-])c3)cc2)CC1` [4-{4-[(2-chlorophenyl)methyl]-4-methoxypiperidin-1-yl}-N-[(4-{[(2R)-4-(dimethylamino)-1-(phenylsulfanyl)butan-2-yl]amino}-3-nitrobenzene)sulfonyl]benzamide], for which the values for the half-maximal effective concentration (EC50) in assay [1] and in assay [2] were 180 nM and 230 nM, respectively. In the case of `CN(C)CC[C@H](CSc1ccccc1)Nc1ccc(S(=O)(=O)NC(=O)c2ccc(N3CCC(=Cc4ccccc4Cl)CC3)cc2)cc1[N+](=O)[O-]` [4-{4-[(2-chlorophenyl)methylidene]piperidin-1-yl}-N-[(4-{[(2R)-4-(dimethylamino)-1-(phenylsulfanyl)butan-2-yl]amino}-3-nitrobenzene)sulfonyl]benzamide], the results for the EC50 in assay [1] and in assay [2] were 450 nM and 350 nM, respectively.

Take `CN(C)CC[C@H](CSc1ccccc1)Nc1ccc(S(=O)(=O)NC(=O)c2ccc(N3CCC(=Cc4ccccc4C#N)CC3)cc2)cc1[N+](=O)[O-]` [4-{4-[(2-cyanophenyl)methylidene]piperidin-1-yl}-N-[(4-{[(2R)-4-(dimethylamino)-1-(phenylsulfanyl)butan-2-yl]amino}-3-nitrobenzene)sulfonyl]benzamide]: the 50% effective concentration (EC50) in assay [1] is 1600 nM; in assay [2], 1100 nM. Turning to `CN(C)CC[C@H](CSc1ccccc1)Nc1ccc(S(=O)(=O)NC(=O)c2ccc(N3CCC(=Cc4ccccc4-c4ccccc4)CC3)cc2)cc1[N+](=O)[O-]` [N-[(4-{[(2R)-4-(dimethylamino)-1-(phenylsulfanyl)butan-2-yl]amino}-3-nitrobenzene)sulfonyl]-4-{4-[(2-phenylphenyl)methylidene]piperidin-1-yl}benzamide], the half-maximal effective concentration (EC50) in assay [1] is 160 nM and 180 nM. Take `CN(C)CC[C@H](CSc1ccccc1)Nc1ccc(S(=O)(=O)NC(=O)c2ccc(N3CCC(=Cc4ccc(F)cc4)CC3)cc2)cc1[N+](=O)[O-]` [N-[(4-{[(2R)-4-(dimethylamino)-1-(phenylsulfanyl)butan-2-yl]amino}-3-nitrobenzene)sulfonyl]-4-{4-[(4-fluorophenyl)methylidene]piperidin-1-yl}benzamide]: the EC50 was found to be 600 nM in assay [1] and 380 nM in assay [1] (pH 7.4).

`Cc1ccc(S(=O)(=O)N2CCN(c3ccc(C(=O)NS(=O)(=O)c4ccc(N[C@H](CCN(C)C)CSc5ccccc5)c([N+](=O)[O-])c4)cc3)CC2)cc1` [N-[(4-{[(2R)-4-(dimethylamino)-1-(phenylsulfanyl)butan-2-yl]amino}-3-nitrobenzene)sulfonyl]-4-{4-[(4-methylbenzene)sulfonyl]piperazin-1-yl}benzamide]: the concentration for a half-maximal effect (EC50) in assay [1] and in assay [1] (pH 7.4) was greater than 20000 nM throughout.

The EC50 is the concentration giving half of the maximal effect.
